Results published in article PMC9874818 (Archiv Der Pharmazie, 2022).
Starred links: 1 amine or outer side, 2 acyl side, 3 side chain; linkers in the order of their positions; H or OH if unused. Residues, ends and D or L forms follow the SMILES beside them. CO = O=C([*:1])[*:2]

What was measured:
[1] = cited from earlier work
CATSL (human liver) = CATSL (human liver) (Homo sapiens, UniProt P07711); assay: biochemical
[2] = target: TMPRSS2 (human recombinant) (Homo sapiens, UniProt O15393); format: biochemical; details: ratio of IC50 values
Chain of TMPRSS2 (human recombinant) (O15393 whole entry): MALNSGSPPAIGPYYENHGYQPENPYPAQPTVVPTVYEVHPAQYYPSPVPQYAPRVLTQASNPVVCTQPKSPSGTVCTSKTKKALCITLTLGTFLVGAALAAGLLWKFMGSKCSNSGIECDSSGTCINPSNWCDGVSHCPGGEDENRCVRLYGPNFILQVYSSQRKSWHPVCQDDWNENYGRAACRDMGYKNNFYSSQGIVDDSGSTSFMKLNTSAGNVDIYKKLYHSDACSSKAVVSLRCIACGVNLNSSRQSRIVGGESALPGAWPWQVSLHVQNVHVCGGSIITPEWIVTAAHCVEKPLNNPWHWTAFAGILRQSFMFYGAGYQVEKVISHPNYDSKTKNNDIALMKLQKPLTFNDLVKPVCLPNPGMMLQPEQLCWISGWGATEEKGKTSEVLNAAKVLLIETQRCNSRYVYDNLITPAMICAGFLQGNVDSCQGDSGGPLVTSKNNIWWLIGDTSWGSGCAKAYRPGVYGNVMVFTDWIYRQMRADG

CATSB (human liver) = CATSB (human liver) (Homo sapiens, UniProt P07858); assay: biochemical
[3] = target: Furin (human recombinant aa108–715) (Homo sapiens, UniProt P09958); assay: biochemical
Chain of Furin (human recombinant aa108–715) (P09958 108-715): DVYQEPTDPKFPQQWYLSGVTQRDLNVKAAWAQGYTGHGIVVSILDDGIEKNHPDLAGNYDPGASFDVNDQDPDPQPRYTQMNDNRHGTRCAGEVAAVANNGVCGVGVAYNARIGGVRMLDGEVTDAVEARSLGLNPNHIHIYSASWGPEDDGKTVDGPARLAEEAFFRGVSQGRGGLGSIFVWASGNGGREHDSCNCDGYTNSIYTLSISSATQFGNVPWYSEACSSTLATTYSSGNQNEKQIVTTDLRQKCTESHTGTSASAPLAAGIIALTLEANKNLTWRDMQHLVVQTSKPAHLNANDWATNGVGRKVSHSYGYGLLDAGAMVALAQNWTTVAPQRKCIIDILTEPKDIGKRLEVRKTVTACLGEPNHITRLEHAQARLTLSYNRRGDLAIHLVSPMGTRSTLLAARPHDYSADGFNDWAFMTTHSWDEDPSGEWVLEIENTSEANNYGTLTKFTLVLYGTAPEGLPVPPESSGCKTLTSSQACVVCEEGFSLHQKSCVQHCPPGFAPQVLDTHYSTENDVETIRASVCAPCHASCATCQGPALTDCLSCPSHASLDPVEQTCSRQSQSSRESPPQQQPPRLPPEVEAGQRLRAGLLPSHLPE

Chain of CATSL (human liver) (P07711 114-333): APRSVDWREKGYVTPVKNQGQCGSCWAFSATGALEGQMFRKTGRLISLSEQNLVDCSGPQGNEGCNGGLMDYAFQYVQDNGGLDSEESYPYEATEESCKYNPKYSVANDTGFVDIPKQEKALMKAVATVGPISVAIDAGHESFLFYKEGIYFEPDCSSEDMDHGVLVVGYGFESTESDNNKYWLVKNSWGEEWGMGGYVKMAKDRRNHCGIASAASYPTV

Compound | plasma half-life [1] | IC50 (CATSL (human liver)) [nM] | increase in TMPRSS2 potency over BC-11 [2] [fold] | IC50 (CATSB (human liver)) [nM] | IC50 [3] [nM]
N=C(N)c1ccc2cc(OC(=O)c3ccc(N=C(N)N)cc3)ccc2c1 [nafamostat] | approximately an hour or less | – | – | – | –
CC(C)[C@H](NC(=O)[C@H](CCCNC(=N)N)NC(=O)N[C@@H](Cc1ccccc1)C(=O)O)C(=O)N[C@H](C=O)CCCNC(=N)N [antipain, L‐Phe‐CO‐L‐Arg‐L‐Val‐L‐Arg‐H] ({Phe-CO}-Arg-Val-Arg-aldehyde) | – | 2.74 | 2 | 24.1 | 4170
CN(C)C(=O)COC(=O)Cc1ccc(OC(=O)c2ccc(NC(=N)N)cc2)cc1 [camostat] | approximately an hour or less | – | – | – | –
